Measured values reported in patent US20210230131A1, “POLYAMINO BIARYL COMPOUNDS AND THEIR USE” (INSERM (INSTITUT NATIONAL DE LA SANTÉ ET DE LA RECHERCHE …, priority 2018, published 2021).

Tests used:
Format in all cases: in vivo
Tau = Tau phosphorylation by Western-blotting in hippocampus and cortex of ThyTau22 mice; conditions: one month treatment; for phosphorylation of Tau (overall): hippocampus and cortex
Method: (§1) Thy-Tau22 transgenic colonies (C57Bl/6J genetic background) were obtained by crossing heterozygous males C57Bl/6J with WT females. All animals were housed in a pathogen-free facility at 5 to 6 animals per cage (Techniplast Cages 1284L), with ad libitum access to food and water in a 12/12-hour light-dark cycle and maintained under a constant temperature of 22° C. For treatment, animals were randomly distributed and compound 30 or 31 was provided in the drinking water at a final concentration of 1 mg/kg, ie […] for drinking solutions taking into account an average weight of 25 g/mouse drinking 4 mL/day. […] Food consumption and bodyweight were also assessed. In WT animals, a pilot study of drug treatment was performed for one month to establish the innocuousness of compound 30 and 31 treatments. Thy-Tau22 females were treated for 1 months, starting at 6 months of age.
Hyperphosphorylation and phosphorylation levels of Tau. Tau expression, phosphorylation and hyperphosphorylation in the hippocampus and in the cortex were investigated by Western-blotting (FIGS. 5 and 6). The mice were euthanized by beheading and their brain was dissected and was put for few seconds in an isopropanol solution for post-mortem conservation. The samples were sonicated with a Tris-Sucrose Buffer during 30s and were prepared for Western-blot analysis by adding 1 volume of NuPage NuPAGER©LDS 2× sample buffer supplemented with 20% NuPAGER© sample reducing agents (Invitrogen). Samples were heated 10 min at 70° C. 8 μg of proteins per well were loaded onto precast 12% Criterion XT Bis-Tris polyacrylamide 26 wells gels (Bio-Rad) and electrophoresis was achieved by applying a tension of 200V during 60 min using a Criterion electrophoresis Cell with the NuPAGER©MOPS SDS running buffer (1×). Proteins were transferred to a nitrocellulose membrane of […] pore size (G&E Healthcare) using the Criterion blotting system by applying a tension of 100 V for 40 min. Molecular weights calibration was achieved using molecular weight markers (Novex and Magic Marks, Life Technologies). Protein transfer and quality were determined by a reversible Ponceau Red coloration (0.2% Xylidine Ponceau Red and 3% Trichloroacetic acid). Membranes were then blocked in 25 mM Tris-HCl pH 8.0, 150 mM NaCl, 0.1% Tween-20 (v/v) (TBS-T) and 5% (w/v) of skimmed milk (TBS-M) or 5% (w/v) of bovine serum albumin (TBS-BSA) depending on the antibody during 1 hour. […] Quantifications of protein expression levels were performed with ImageQuantTL Software. The results obtained with the quantification of the treated samples were divided by the results obtained with the quantification of the housekeeping gene (GAPDH) in order to check if the amount of proteins was homogeneous in each well. […]

ThyTau22 mice = experiment: Y-Maze short-term memory test in Thy-Tau22 mice; conditions: ThyTau22 mice treated one month, 1 mg/kg in drinking water; compared with compound 30
Method: as §1, with “In WT animals, a pilot study of drug treatment was performed for one month to establish the innocuousness of compound 30 and 31 treatments. Thy-Tau22 females were treated for 1 months, starting at 6 months of age.” left out
Before any behavioral test, exploratory behavior and locomotion were evaluated in treated and untreated animals in an Openfield (OF) 25 cm×25 cm arena. […] Anxiety, which could interfere with the memory test, was evaluated using the elevated plus maze (EPM). […] Locomotion, distance, speed and velocity were measured, as well as the number of entries into each arm, time spent in open versus closed arms, percentage of open arm entries and time spent in the open arms during a 5 minutes test.
Y-Maze: Short-term memory was tested on a Y-maze. […] Parameters—total distance travelled, velocity, alternation between the arms, entries into the new, starting or other arm—were measured over 5 minutes. […]

wild-type mice = experiment: Y-Maze short-term memory test in wild-type mice; conditions: treated wild-type mice, 1 mg/kg in drinking water
Method: as §1
Y-Maze: Short-term memory was tested on a Y-maze. The Y-maze consists of three enclosed arms surrounded by spatial clues. One arm was closed off during the learning phase. Each mouse was positioned in the Starting arm. Mice were allowed to explore the maze for 5 min. During 2 min of retention time, the closed arm was opened and the mouse was re-placed in the starting arm. […] Parameters—total distance travelled, velocity, alternation between the arms, entries into the new, starting or other arm—were measured over 5 minutes. […]

Row | Structure (SMILES) | phosphorylation of Tau (overall) (Tau) | Tau phosphorylation sites in the cortex (Tau; Western-blot) | Tau phosphorylation sites in the hippocampus (Tau; Western-blot) | short memory preservation at the Y-Maze task (ThyTau22 mice) | Y-Maze behavioral task (wild-type mice)
1 | CN(C)Cc1ccccc1-c1ccc(NCCCN2CCCCC2)c(OCCN2CCCCC2)c1 [Compound 30, 4-(2-[(Dimethylamino)methyl]phenyl)-2-[2-(piperidin-1-yl)ethoxy]-N-[3-(piperidin-1-yl)propyl]aniline] | showed less effect on Tau phosphorylation |  |  |  | 
2 | CN(C)Cc1ccccc1-c1ccc(NCCCN2CCCCC2)c(OCCC2CCCCC2)c1 [Compound 31, 3-(2-cyclohexylethoxy)-2′-((dimethylamino)methyl)-N-(3-(piperidin-1-yl)propyl)-[1,1′-biphenyl]-4-amine] | decreased the phosphorylation of Tau in the hippocampus and in the cortex | decreased significantly the p422, AT100, p396 and p262 phosphorylation sites | p422 and p262 phosphorylation sites were also significantly reduced | higher short memory preservation | succeed in the Y-Maze behavioral task
